Laboratory results reported in patent publication US11485697B2, “Antimalarial compositions and uses thereof” (THE SCRIPPS RESEARCH INSTITUTE, priority 2016, dated 2022).

What was measured:
sporozoites = assay: Sporozoite challenge at day 14 following IM administration of Compound 2 (percent protection, FIG. 2A); format: in vivo, mouse; conditions: IM Compound 2
Description: The exposure is not highly variable between animals in a given group. The Ctrough is about 83±32 nM for animals that are protected from infection.

[1] = Dog PK, crystalline compound 2 suspension injected intramuscularly (Table 24A); format: in vivo; design: Clast: unit not given here; conditions: plasma analyte = labelled substance; for half-life / plasma exposure (in words): after IM crystalline Compound 2 10 mg/kg suspension
Description: Compound 2 was dosed in dog at 10 mg/kg (Injection volume: 0.5 mL/kg). The material was formulated as a 20 mg/mL suspension in 3% TPGS and 1% HPMC E5. […] Half-life of ELQ-300 was about […] as that of compound 2 (205 and 124 respectively).

[2] = Key in vitro ADME for Compound 2 (Table 36); conditions: for half-life: read-out: Hepatocyte T1/2
[3] = Atovaquone plasma concentration following PO administration of Compound 27 (Table 29); format: in vivo, mice; conditions: Compound 27, PO; 28 d
Description: Animals (Male CD-1 mice, 7-9 weeks) were obtained from an approved vendor (SLAC Laboratory Animal Co. Ltd., Shanghai, China; or SIPPR-B&K Laboratory Animal Co. Ltd., Shanghai, China).
Animals were fasted at least 12 hours prior to the administration. All animals had access to Certified Rodent Diet (Catalog #M01-F, SLAC Laboratory Animal Cl. Ltd., Shanghai, China) ad libitum 4 hours post dosing.
Appropriate amount of test compound was accurately weighed and mixed with appropriate volume of vehicle to get a clear solution or a uniform suspension, vortexing or sonication in water bath was sometimes needed. The formulations were prepared on the day of dosing. Animals were dosed within four hours after the formulation was prepared. Two 20 μL aliquots of each formulation were removed from each of the formulation solutions, transferred into 1.5 mL of polypropylene microcentrifuge tubes and run dose validation by LC/UV or LC-MS/MS.
The PO dose formulation was administered via oral gavage following facility SOPs. […]
• Aliquots of the formulations were collected in the middle position of each dose formulation in duplicate. • The concentrations of the test compound in dose formulation samples were determined by the LC/UV or LC/MS/MS method. […]
Plasma concentration versus time data was analyzed by non-compartmental approaches using the Phoenix WinNonlin 6.3 software program. […]

[4] = after IM crystalline Compound 2 10 mg/kg, 20 mg/mL suspension in 3% TPGS, 1% HPMC E5

With `CCCC(=O)OCOc1c(-c2ccc(Oc3ccc(OC(F)(F)F)cc3)cc2)c(C)nc2cc(OC)c(Cl)cc12` [Compound 2, (6-chloro-7-methoxy-2-methyl-3-(4-(4-(trifluoromethoxy)phenoxy)phenyl)quinolin-4-yloxy)methyl butyrate] the “Ctrough (ELQ-300) for animals that are protected from infection” value (sporozoites) was “about 83±32 nM”, the half-life [1] was 124 h and the “plasma exposure (in words)” value [1] was “low but detectable throughout the duration of the study”. The AUC(0-inf) [1, 4] was 18.1 µM·h, the AUC(0-t) [1, 4] was 16.4 µM·h and the CL/F [1, 4] was 14.4 mL/min/kg. The Clast [1, 4] was 4.5 (4.7), the Cmax [1, 4] was 730 nM and the T1/2 [1, 4] was 124 (34) h. For the same molecule, the Tmax [1, 4] was 3 h, the half-life ([2]; Dog hepatocytes) was 0.367 h and the “Liver S9 % remaining after 2 hours” value ([2]; Dog liver S9) was 47%. For the same molecule, the “Plasma % remaining after 2 hours” value ([2]; Dog plasma) was 83%, the half-life ([2]; Human hepatocytes) was 1.28 h and the “Liver S9 % remaining after 2 hours” value ([2]; Human liver S9) was 35%. For the same molecule, the “Plasma % remaining after 2 hours” value ([2]; Human plasma) was 82%, the “Plasma % remaining after 2 hours” value ([2]; Monkey plasma) was 85% and the “Plasma % remaining after 2 hours” value ([2]; Mouse plasma) was 0%. The “Plasma % remaining after 2 hours” value ([2]; Rat plasma) was 0%.
With `CCCCCCCCCC(=O)OC1=C(C2CCC(c3ccc(Cl)cc3)CC2)C(=O)c2ccccc2C1=O` (stereo not shown) [Compound 27, 3-((1r,4r)-4-(4-chlorophenyl)cyclohexyl)-1,4-dioxo-1,4-dihydronaphthalen-2-yl decanoate] the “average atovaquone plasma concentration” value [3] was “BQL”.
For `COc1cc2[nH]c(C)c(-c3ccc(Oc4ccc(OC(F)(F)F)cc4)cc3)c(=O)c2cc1Cl` [ELQ-300, 6-chloro-7-methoxy-2-methyl-3-(4-(4-(trifluoromethoxy)phenoxy)phenyl)quinolin-4(1H)-one, reference compound], the half-life [1] was 205 h, the “plasma exposure (in words)” value [1] was “several orders of magnitude higher than that of Compound 2” and the AUC(0-inf) [1, 4] was 1290 µM·h. The AUC(0-t) [1, 4] was 1140 µM·h, the CL/F [1, 4] was 0.23 mL/min/kg and the Cmax [1, 4] was 4640 nM. For the same molecule, the T1/2 [1, 4] was 205 (39) h and the Tmax [1, 4] was 48 h.
